From PubChem BioAssay (NCI)
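Grown in 96-well plates, cells were treated for 48 hours with each compound at five concentrations. Insufficient inhibition: endpoint recorded as highest concentration tested. GI50: concentration for 50% inhibition of growth. TGI denotes the concentration required for complete inhibition of growth.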

Key:
Test in all cases: growth of human tumour cells (NCI), 48 h
NCI/ADR-RES ovarian = test system: NCI/ADR-RES ovarian
MDA-MB-435 = test system: MDA-MB-435
OVCAR-5 ovarian = test system: OVCAR-5 ovarian
UO-31 renal = test system: UO-31 renal
786-0 renal = test system: 786-0 renal
HCT-116 colon = test system: HCT-116 colon
K-562 leukemia = test system: K-562 leukemia
EKVX NSCLC = test system: EKVX NSCLC
SW-620 colon = test system: SW-620 colon
LOX IMVI melanoma = test system: LOX IMVI melanoma
BT-549 breast = test system: BT-549 breast
TK-10 renal = test system: TK-10 renal
UACC-257 melanoma = test system: UACC-257 melanoma
COLO 205 colon = test system: COLO 205 colon
NCI-H460 lung = test system: NCI-H460 lung
SK-MEL-5 melanoma = test system: SK-MEL-5 melanoma
PC-3 prostate = test system: PC-3 prostate
M14 melanoma = test system: M14 melanoma
MOLT-4 leukemia = test system: MOLT-4 leukemia
MALME-3M melanoma = test system: MALME-3M melanoma
UACC-62 melanoma = test system: UACC-62 melanoma
DU-145 prostate = test system: DU-145 prostate
SK-MEL-28 melanoma = test system: SK-MEL-28 melanoma
HCC-2998 colon = test system: HCC-2998 colon
SF-295 CNS = test system: SF-295 CNS
SK-MEL-2 melanoma = test system: SK-MEL-2 melanoma
NCI-H23 lung = test system: NCI-H23 lung
NCI-H522 lung = test system: NCI-H522 lung
ACHN renal = test system: ACHN renal
SF-539 CNS = test system: SF-539 CNS
SN12C renal = test system: SN12C renal
NCI-H226 lung = test system: NCI-H226 lung
SF-268 CNS = test system: SF-268 CNS
A549 NSCLC = test system: A549 NSCLC
HOP-62 NSCLC = test system: HOP-62 NSCLC
SNB-19 CNS = test system: SNB-19 CNS
OVCAR-4 ovarian = test system: OVCAR-4 ovarian
RXF 393 renal = test system: RXF 393 renal
OVCAR-8 ovarian = test system: OVCAR-8 ovarian
SK-OV-3 ovarian = test system: SK-OV-3 ovarian
HCT-15 colon = test system: HCT-15 colon
CAKI-1 renal = test system: CAKI-1 renal
HT29 colon = test system: HT29 colon
U251 CNS = test system: U251 CNS
MDA-MB-231 breast = test system: MDA-MB-231 breast
CCRF-CEM leukemia = test system: CCRF-CEM leukemia
MCF7 breast = test system: MCF7 breast
T-47D breast = test system: T-47D breast
RPMI-8226 leukemia = test system: RPMI-8226 leukemia
HOP-92 NSCLC = test system: HOP-92 NSCLC
HL-60(TB) leukemia = test system: HL-60(TB) leukemia
KM12 colon = test system: KM12 colon
SNB-75 CNS = test system: SNB-75 CNS
HS 578T breast = test system: HS 578T breast
A498 renal = test system: A498 renal
IGROV1 ovarian = test system: IGROV1 ovarian

## O=C(/C=C/c1csc(Br)n1)NO
NCI/ADR-RES ovarian
  GI50: 1570 nM
  TGI: 8.36 µM
MDA-MB-435
  GI50: 2880 nM
  TGI: 15.3 µM
OVCAR-5 ovarian
  GI50: 2250 nM
  TGI: > 100 µM
UO-31 renal
  GI50: 1700 nM
  TGI: 4.16 µM
786-0 renal
  GI50: 3.38 µM
  TGI: 34.7 µM
HCT-116 colon
  GI50: 1830 nM
  TGI: 4.51 µM
K-562 leukemia
  GI50: 2610 nM
  TGI: 15.4 µM
EKVX NSCLC
  GI50: 4.23 µM
  TGI: > 100 µM
SW-620 colon
  GI50: 1890 nM
  TGI: 5.52 µM
LOX IMVI melanoma
  GI50: 1310 nM
  TGI: 2690 nM
BT-549 breast
  GI50: 3.84 µM
  TGI: 16.5 µM
TK-10 renal
  GI50: 1410 nM
  TGI: 6.18 µM
UACC-257 melanoma
  GI50: 1310 nM
  TGI: 4.91 µM
COLO 205 colon
  GI50: 1750 nM
  TGI: 3.36 µM
NCI-H460 lung
  GI50: 2810 nM
  TGI: 41.5 µM
SK-MEL-5 melanoma
  GI50: 1820 nM
  TGI: 3.5 µM
PC-3 prostate
  GI50: 3.17 µM
  TGI: 17.6 µM
M14 melanoma
  GI50: 3.3 µM
  TGI: 17.7 µM
MOLT-4 leukemia
  GI50: 2300 nM
  TGI: 10.2 µM
MALME-3M melanoma
  GI50: 1410 nM
  TGI: 8.29 µM
UACC-62 melanoma
  GI50: 1250 nM
  TGI: 3.2 µM
DU-145 prostate
  GI50: 3.16 µM
  TGI: 23.1 µM
SK-MEL-28 melanoma
  GI50: 3.46 µM
  TGI: > 100 µM
HCC-2998 colon
  GI50: 3.29 µM
  TGI: 11.6 µM
SF-295 CNS
  GI50: 2510 nM
  TGI: 6.35 µM
SK-MEL-2 melanoma
  GI50: 2620 nM
  TGI: 7.26 µM
NCI-H23 lung
  GI50: 3.01 µM
  TGI: 10.5 µM
NCI-H522 lung
  GI50: 2480 nM
  TGI: 11.2 µM
ACHN renal
  GI50: 2360 nM
  TGI: 6.99 µM
SF-539 CNS
  GI50: 3.11 µM
  TGI: 14.8 µM
SN12C renal
  GI50: 3.84 µM
  TGI: > 100 µM
NCI-H226 lung
  GI50: 5.22 µM
  TGI: 20 µM
SF-268 CNS
  GI50: 3.22 µM
  TGI: 9.29 µM
A549 NSCLC
  GI50: 2450 nM
  TGI: 8.4 µM
HOP-62 NSCLC
  GI50: 2760 nM
  TGI: 11.5 µM
SNB-19 CNS
  GI50: 3.82 µM
  TGI: 88.4 µM
OVCAR-4 ovarian
  GI50: 6.3 µM
  TGI: > 100 µM
RXF 393 renal
  GI50: 1430 nM
  TGI: 3.65 µM
OVCAR-8 ovarian
  GI50: 2190 nM
  TGI: 8.33 µM
SK-OV-3 ovarian
  GI50: 1770 nM
  TGI: 5.09 µM
HCT-15 colon
  GI50: 3.17 µM
  TGI: > 100 µM
CAKI-1 renal
  GI50: 2350 nM
  TGI: 7.22 µM
HT29 colon
  GI50: 2310 nM
  TGI: > 100 µM
U251 CNS
  GI50: 1900 nM
  TGI: 4.09 µM
MDA-MB-231 breast
  GI50: 3.51 µM
  TGI: 21.2 µM
CCRF-CEM leukemia
  GI50: 2730 nM
  TGI: > 100 µM
MCF7 breast
  GI50: 3000 nM
  TGI: 16.7 µM
T-47D breast
  GI50: 2030 nM
  TGI: 5.63 µM
RPMI-8226 leukemia
  GI50: 2640 nM
  TGI: 18.8 µM
HOP-92 NSCLC
  GI50: 1300 nM
  TGI: 3.95 µM
HL-60(TB) leukemia
  GI50: 2510 nM
  TGI: 6.58 µM
KM12 colon
  GI50: 3.61 µM
  TGI: 39.5 µM
SNB-75 CNS
  GI50: 1830 nM
  TGI: 21 µM
HS 578T breast
  GI50: 2050 nM
  TGI: 8.66 µM
A498 renal
  GI50: 1340 nM
  TGI: 3.21 µM
IGROV1 ovarian
  GI50: 2060 nM
  TGI: 5.25 µM
